Test results published in patent publication US20130072474A1, “TREATMENT OF DEMENTIA OF ALZHEIMER'S TYPE WITH MASITINIB” (AB SCIENCE, priority 2010, published 2013).

Experiments:
[1] = tested on: patients suffering from mild to moderate dementia of Alzheimer's type; test: Phase 2 study, ADCS-ADL (daily living activities); type: in vivo, human; settings: ITT population
Excerpt: (§1) A multicenter, randomized, double-blind, placebo-controlled, parallel-group phase 2 study evaluating the activity of masitinib given orally for 24 weeks has been performed in patients suffering from mild to moderate dementia of Alzheimer's type (protocol period completed, extension ongoing).
(§2) Patients: Patients enrolled in this study had dementia of Alzheimer's type (according to DSM IV criteria), probable Alzheimer's disease according to NINCDS-ADRDA criteria, MMSE≧12 and ≦26, and CDR of 1 or 2. […] Exclusion criteria included inadequate organ function (defined via blood test levels), dementia due to any other causes, uncontrolled depression, psychosis, delusions or delirium.
(§3) Treatment: In addition to a stable dose of acetylcholinesterase inhibitors and/or memantine, patients received masitinib or placebo, supplied as 100 and 200 mg tablets, per os for 24 weeks. Patients received masitinib or placebo initially at a daily total dose of 3 mg/kg or 6 mg/kg, administered twice daily with meals. Dose could be increased or decreased by 1.5 mg/kg/day depending on efficacy and toxicity assessments. Five patients were allocated to each masitinib dose for every three placebo patients. Treatment with any registered or putative cognitive enhancer or disease modifier (other than donepezil, galantamine, rivastigmine or memantine), or any investigational therapies was not allowed.
ADCS-ADL: Alzheimer's Disease Cooperative Study-Activities of Daily Living, which measures a wide spectrum of dementia severity. Patients/caregivers are asked 23 questions about their daily activities. The maximum possible score is 78, with a higher score indicating better function
(§4) Statistical analyses: Efficacy was analyzed in the intent-to-treat (ITT) (all randomized patients, according to group of randomization) and per protocol (PP) (all patients without a major protocol deviation) populations. […] Efficacy criteria were analyzed using descriptive statistics, numbers and rates for categorical and discontinuous variables, parametric and non-parametric distribution elements for continuous variables.
(§5) Results are presented for the ITT population in the OC dataset (with LOCF for Centre #21 at Week 24).

[2] = tested on: patients suffering from mild to moderate dementia of Alzheimer's type; test: Phase 2 study, ADAS-Cog (cognitive function); type: in vivo, human; set-up: key to ADAS-Cog absolute changes, Mean ± Std / ADAS-Cog absolute changes, Median: change in ADAS-Cog score (0-70 scale; higher = greater cognitive impairment); settings: for ADAS-Cog No change, rate of patients / ADAS-Cog Response (Decrease >=4), rate of patients / ADAS-Cog Response without deterioration (in ADCS-ADL and CIBIC-plus), rate of patients / ADAS-Cog Worsening (Increase >=4), rate of patients / ADAS-Cog absolute changes, Mean ± Std / ADAS-Cog absolute changes, Median: ITT population
Excerpt: as §1, §2, §3
ADAS-Cog: Alzheimer's Disease Assessment Scale, a cognitive sub-scale which examines selected aspects of cognitive performance including elements of memory, orientation, attention, reasoning, language and praxis. The ADAS-Cog scoring range is from 0 to 70, with higher scores indicating greater cognitive impairment.
as §4, §5

[3] = W 12, Observed Cases, listed as AB1010
[4] = W 24 LOCF center 21, Observed Cases
[5] = W 24 LOCF center 21, observed cases, listed as AB1010

SMILES: Cc1ccc(NC(=O)c2ccc(CN3CCN(C)CC3)cc2)cc1Nc1nc(-c2cccnc2)cs1 [masitinib, 4-(4-methylpiperazin-1-ylmethyl)-N-[4-methyl-3-(4-pyridin-3ylthiazol-2-ylamino)phenyl]benzamide]
- ADCS-ADL No change, rate of patients ([1]; W 4, Observed Cases): 5 (22.7%)
- ADCS-ADL Response (Increase >=3), rate of patients ([1]; W 4, Observed Cases): 10 (45.5%)
- ADCS-ADL Worsening (Decrease <0), rate of patients ([1]; W 4, Observed Cases): 7 (31.8%)
- ADCS-ADL absolute change relative to baseline, Mean ± Std ([1]; W 4, Observed Cases): 1.8 ± 6.1
- ADCS-ADL absolute change relative to baseline, Median ([1]; W 4, Observed Cases): 1.5
- ADCS-ADL No change, rate of patients ([1]; W 8, Observed Cases): 5 (27.8%)
- ADCS-ADL Response (Increase >=3), rate of patients ([1]; W 8, Observed Cases): 7 (38.9%)
- ADCS-ADL Worsening (Decrease <0), rate of patients ([1]; W 8, Observed Cases): 6 (33.3%)
- ADCS-ADL absolute change relative to baseline, Mean ± Std ([1]; W 8, Observed Cases): 0.3 ± 7.0
- ADCS-ADL absolute change relative to baseline, Median ([1]; W 8, Observed Cases): 1.0
- ADCS-ADL No change, rate of patients ([1]; W 12, Observed Cases): 3 (18.8%)
- ADCS-ADL Response (Increase >=3), rate of patients ([1]; W 12, Observed Cases): 8 (50.0%)
- ADCS-ADL Worsening (Decrease <0), rate of patients ([1]; W 12, Observed Cases): 31%
- ADCS-ADL absolute change relative to baseline, Mean ± Std ([1]; W 12, Observed Cases): 6.9±10.9
- ADCS-ADL absolute change relative to baseline, Median ([1]; W 12, Observed Cases): 3.0
- ADCS-ADL Worsening (Decrease <0), rate of patients [1, 3]: 5 (31.3%)
- ADCS-ADL absolute change relative to baseline, Mean ± Std [1, 3]: 6.9 ± 10.9
- ADCS-ADL No change, rate of patients ([1]; W 24, Observed Cases): 0 (0.0%)
- ADCS-ADL Response (Increase >=3), rate of patients ([1]; W 24, Observed Cases): 5 (62.5%)
- ADCS-ADL Worsening (Decrease <0), rate of patients ([1]; W 24, Observed Cases): 3 (37.5%)
- ADCS-ADL absolute change relative to baseline, Mean ± Std ([1]; W 24, Observed Cases): −1.4 ± 15.3
- ADCS-ADL absolute change relative to baseline, Median ([1]; W 24, Observed Cases): 4.0
- ADCS-ADL No change, rate of patients [1, 4]: 2 (13.3%)
- ADCS-ADL Response (Increase >=3), rate of patients [1, 4]: 60%
- ADCS-ADL Worsening (Decrease <0), rate of patients [1, 4]: 27%
- ADCS-ADL absolute change relative to baseline, Mean ± Std [1, 4]: 5.5±15.8
- ADCS-ADL absolute change relative to baseline, Median [1, 4]: 4.0
- ADCS-ADL Response (Increase >=3), rate of patients [1, 5]: 9 (60.0%)
- ADCS-ADL Worsening (Decrease <0), rate of patients [1, 5]: 4 (26.7%)
- ADCS-ADL absolute change relative to baseline, Mean ± Std [1, 5]: 5.5 ± 15.8
- ADAS-Cog No change, rate of patients ([2]; W 4, Observed Cases): 17 (70.8%)
- ADAS-Cog Response (Decrease >=4), rate of patients ([2]; W 4, Observed Cases): 3 (12.5%)
- ADAS-Cog Response without deterioration (in ADCS-ADL and CIBIC-plus), rate of patients ([2]; W 4, Observed Cases): 2 (9.1%)
- ADAS-Cog Worsening (Increase >=4), rate of patients ([2]; W 4, Observed Cases): 4 (16.7%)
- ADAS-Cog absolute changes, Mean ± Std ([2]; W 4, Observed Cases): −0.0 ± 6.1
- ADAS-Cog absolute changes, Median ([2]; W 4, Observed Cases): −1.5
- ADAS-Cog No change, rate of patients ([2]; W 8, Observed Cases): 4 (44.4%)
- ADAS-Cog Response (Decrease >=4), rate of patients ([2]; W 8, Observed Cases): 4 (44.4%)
- ADAS-Cog Response without deterioration (in ADCS-ADL and CIBIC-plus), rate of patients ([2]; W 8, Observed Cases): 2 (25.0%)
- ADAS-Cog Worsening (Increase >=4), rate of patients ([2]; W 8, Observed Cases): 1 (11.1%)
- ADAS-Cog absolute changes, Mean ± Std ([2]; W 8, Observed Cases): −0.8 ± 8.1
- ADAS-Cog absolute changes, Median ([2]; W 8, Observed Cases): −2.8
- ADAS-Cog No change, rate of patients ([2]; W 12, Observed Cases): 9 (52.9%)
- ADAS-Cog Response (Decrease >=4), rate of patients ([2]; W 12, Observed Cases): 7 (41.2%)
- ADAS-Cog Response without deterioration (in ADCS-ADL and CIBIC-plus), rate of patients ([2]; W 12, Observed Cases): 25%
- ADAS-Cog Worsening (Increase >=4), rate of patients ([2]; W 12, Observed Cases): 1 (5.9%)
- ADAS-Cog absolute changes, Mean ± Std ([2]; W 12, Observed Cases): −2.6 ± 3.6
- ADAS-Cog absolute changes, Median ([2]; W 12, Observed Cases): −2.4
- ADAS-Cog Response without deterioration (in ADCS-ADL and CIBIC-plus), rate of patients [2, 3]: 4 (25.0%)
- ADAS-Cog No change, rate of patients ([2]; W 24, Observed Cases): 5 (55.6%)
- ADAS-Cog Response (Decrease >=4), rate of patients ([2]; W 24, Observed Cases): 3 (33.3%)
- ADAS-Cog Response without deterioration (in ADCS-ADL and CIBIC-plus), rate of patients ([2]; W 24, Observed Cases): 2 (25.0%)
- ADAS-Cog Worsening (Increase >=4), rate of patients ([2]; W 24, Observed Cases): 1 (11.1%)
- ADAS-Cog absolute changes, Mean ± Std ([2]; W 24, Observed Cases): −0.7 ± 7.8
- ADAS-Cog absolute changes, Median ([2]; W 24, Observed Cases): −0.3
- ADAS-Cog No change, rate of patients [2, 4]: 9 (56.3%)
- ADAS-Cog Response (Decrease >=4), rate of patients [2, 4]: 38%
- ADAS-Cog Response without deterioration (in ADCS-ADL and CIBIC-plus), rate of patients [2, 4]: 5 (33.3%)
- ADAS-Cog Worsening (Increase >=4), rate of patients [2, 4]: 1 (6.3%)
- ADAS-Cog absolute changes, Mean ± Std [2, 4]: −1.8 ± 6.1
- ADAS-Cog absolute changes, Median [2, 4]: −2.5
- ADAS-Cog Response (Decrease >=4), rate of patients [2, 5]: 6 (37.5%)
- ADAS-Cog score, mean decrease (i.e. improvement) ([2]; Week 12, ITT): 2.6±3.6 units
- ADAS-Cog score, mean decrease ([2]; week 24, ITT): 0.7±7.8 units
